#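 Test compounds were applied to cells in 96-well plates for 48 hours at 5 doses. GI50 is the concentration that inhibits growth by half. The concentration for full growth arrest is given as TGI.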
# Assays:
# Assay in all cases: inhibition of tumour cell growth, NCI panel, 48 h
# [1] = test system: DLD-1 colon
# [2] = test system: DMS 114 small cell lung
# [3] = test system: XF 498 CNS
# [4] = test system: RXF-631 renal
# [5] = test system: HOP-18 NSCLC
# [6] = test system: MDA-MB-231 breast
# [7] = test system: MDA-MB-435
# [8] = test system: DU-145 prostate
# [9] = test system: MDA-N
SMILES,TGI [1] [µM],TGI [2] [µM],TGI [3] [µM],TGI [4] [µM],TGI [5] [µM],GI50 [5] [µM],GI50 [2] [µM],TGI [6] [µM],TGI [7] [µM],TGI [8] [µM],TGI [9] [µM]
O=C(N/C(=C\c1cc(Cl)ccc1Cl)c1nc2[nH]c(=S)[nH]c(=O)c2[nH]1)c1ccccc1,> 64.7,> 82.5,> 100,> 82.7,,,,,,,
CCOC(=O)c1ncn2c1[nH]c(=S)c1ccccc12,> 100,> 100,,> 100,> 100,,,,,,
O=[S@@]1Nc2ccc(Br)cc2S1,> 100,,> 100,> 100,,,,,,,
CN(CC(=O)O)S(=O)(=O)c1ccc2ccccc2c1,> 100,,> 100,> 100,> 100,,,,,,
COc1ccc2c(c1)C1(C=N2)CCN(C(C)=O)CC1,> 100,> 100,,> 100,> 100,,,,,,
CC1(C)COC(c2ccc(C(F)(F)F)cc2C(O)c2ccc3ccccc3c2)=N1 (stereo not drawn),> 10,> 100,> 100,> 100,> 100,> 100,> 100,,,,
Cc1nc2c(nc1C)C(=O)c1ccccc1C2=O,47.9,> 46,,46.1,9.53,,,35.6,0.365,2.72,0.562
Nc1ccc(C(=O)N/C(=C\c2ccc3c(c2)OCO3)c2nc3[nH]c(=S)[nH]c(=O)c3[nH]2)cc1,> 100,,> 100,> 100,,,,,,,
CC1=C(C(=O)Nc2ccccc2C)C(c2ccco2)C(C(=O)Nc2ccccc2C)=C(C)N1C,> 100,> 100,> 100,> 100,> 100,,,,,,
CCOC(=O)COc1cccc2c1C(=O)CCO2,> 100,> 100,> 100,> 100,,,,,,,
CCOC(=O)C(Sc1ccccc1)c1c(OC)cc(=O)oc1/C=[N+](/[O-])c1ccc(N(C)C)cc1 (stereo not drawn),> 100,42.9,27.7,,61.6,,,,,,
O=C1C2=C(SCCS2)C(=O)c2ccccc21,3.53,2.09,3.01,3.28,,,,,,,
CC(=O)C(CN(C(C)C)C(C)C)C(c1ccccc1)c1c(O)c2ccccc2oc1=O (stereo not drawn),> 100,> 100,,> 100,> 100,,,,,,
COc1cccc(NC(=O)CC(=O)n2nc(C)c(N=Nc3ccccc3)c2C)c1,> 100,> 100,> 100,> 100,71.4,,,,,,

# Source: PubChem BioAssay (NCI)
